The test system of test [1] is Ubiquitin-conjugating enzyme E2. The experiment in a line: In vitro SUMOylation assay. Format: biochemical. Particulars: Coomassie or silver stained gel. As to the method:
For in vitro SUMOylation, the reaction mixture comprised 20 μL of reaction buffer (20 mM NH4CO3 pH 9, 20 mM NaCl, 0.5 mM DTT), 1 μg recombinant and purified SUMO proteins, 0.5 μg of substrate E2-25K (Boston Biochem) or RanGAP fragment (Boston Biochem), 0.1 μg SASE1/SAE2 heterodimer (Boston Biochem), 0.5 μg conjugating enzyme hUbC9 (Boston Biochem) with or without Mg-ATP solution (Boston Biochem) at 5 mM. The reaction mixture was incubated at 37° C. for 1 hour and subsequently stopped by adding an equal volume of Laemmli Buffer. The reaction mixture was analysed separated by SDS-PAGE and visualized using Western Blotting (2 μl), coomassie staining (10 μL) or silver staining (5 μL) as shown in FIGS. 7 and 8.
Protein extracts were subjected to electrophoresis through a 4-12% NuPAGE Bis-Tris polyacrylamide gel (Invitrogen, Burlington, ON, Canada) under denaturing conditions. After electrophoresis, proteins were fixed within the polyacrylamide gel by incubating the entire gel in 5% (v/v) acetic acid in a 1:1 (v/v) water:ethanol solution. For silver staining, the gel was first sensitized for 1 minute using an aqueous solution of 0.02% sodium thiosulfate (Na2S2O3) unless otherwise indicated. Staining was performed by incubating the gel in 0.1% (v/v) silver nitrate (AgNO3) in water for 25 minutes at 4° C. Finally, the gel was developed in 3% (w/v) sodium carbonate (Na2CO3, pH: 11.4) containing 0.05% formalin (v/v) in water. The staining was then stopped with a solution of 5% (v/v) acetic acid in water. For Coomassie blue staining, proteins were fixed after gel separation and stained in a one-step procedure by incubating the entire gel in 0.1% (w/v) Coomassie Brilliant Blue R-250 in a 1:8:11 (v/v/v) acetic acid:methanol:water mixture for 1 hour at room temperature (RT). The gel was finally rinsed three times in a 1:4:5 (v/v/v) acetic acid:methanol:water solution at RT to visualize protein bands.

Another test deals with T1, PML (Homo sapiens, UniProt P29590).
T1 construct: tryptic peptides from NTA-purified His-SUMO3 proteins of HEK293 cells treated or not with As2O3; endogenous in cells; host or cells: HEK293 cells expressing the His-SUMO3 mutant
T1 sequence (P29590 1-882): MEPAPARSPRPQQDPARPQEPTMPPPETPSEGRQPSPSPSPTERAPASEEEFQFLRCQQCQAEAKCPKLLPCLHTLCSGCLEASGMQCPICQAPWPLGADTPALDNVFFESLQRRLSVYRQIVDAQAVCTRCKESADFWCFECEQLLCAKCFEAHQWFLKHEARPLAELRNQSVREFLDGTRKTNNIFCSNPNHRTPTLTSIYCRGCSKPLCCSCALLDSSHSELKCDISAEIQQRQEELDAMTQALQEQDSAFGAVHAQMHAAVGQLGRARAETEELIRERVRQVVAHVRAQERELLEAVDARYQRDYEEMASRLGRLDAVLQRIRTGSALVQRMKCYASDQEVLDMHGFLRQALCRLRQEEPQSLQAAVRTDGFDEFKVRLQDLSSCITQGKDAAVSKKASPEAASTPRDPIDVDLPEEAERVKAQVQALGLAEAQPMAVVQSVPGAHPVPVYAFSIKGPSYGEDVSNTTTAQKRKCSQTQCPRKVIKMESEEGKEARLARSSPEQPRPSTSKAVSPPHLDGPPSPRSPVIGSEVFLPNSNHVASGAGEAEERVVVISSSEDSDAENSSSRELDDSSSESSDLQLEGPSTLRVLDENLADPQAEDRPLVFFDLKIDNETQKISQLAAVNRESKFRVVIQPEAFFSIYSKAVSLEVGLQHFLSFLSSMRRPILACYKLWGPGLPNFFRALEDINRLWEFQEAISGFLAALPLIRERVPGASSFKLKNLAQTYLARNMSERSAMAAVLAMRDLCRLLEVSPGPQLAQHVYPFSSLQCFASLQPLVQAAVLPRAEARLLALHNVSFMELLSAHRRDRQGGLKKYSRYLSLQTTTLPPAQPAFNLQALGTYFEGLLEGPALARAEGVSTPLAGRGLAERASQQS
In words: LC-MS/MS of tryptic peptides from NTA-purified His-SUMO3 proteins of HEK293 cells treated or not with As2O3. The class given is cell-based. Here is the method:
FIG. 21 is a scatter plot of tryptic peptides from NTA-purified His-SUMO3 proteins of HEK293 cells treated or not with As2O3.
(§1) SUMOylated proteins were purified from 10^9 cells of stably expressing His6-SUMO1 mutant; half of cell culture was treated with 1 μM As2O3 during 4 hours. Cells were harvested, washed with PBS and lysed with 15 mL of Buffer A (6 M guanidinium-HCl, 0.1 M NaH2PO4, 0.01 M Tris-HCl, pH 8.0, 10 mM-mercaptoethanol). The lysate was sonicated, centrifuged at 16 000 g for 30 minutes and filtered on 0.45 μm and mixed with 500 μL Ni^2+-NTA agarose beads (Invitrogen) pre-washed with lysis buffer and incubated overnight at room temperature on rotating wheel. The NTA beads were successively washed with the following solutions: buffer A, buffer B (8 M Urea, 0.1 M NaH2PO4, 0.01 M Tris-HCl, pH 6.3, 10 mM-mercaptoethanol), buffer B plus 0.2% Triton X-100, twice with buffer B. His SUMO proteins were eluted from the NTA beads using 200 mM imidazole, 0.15 M Tris-HCl, pH 6.7, 5% Glycerol. An example of the enriched His6-SUMO1 mutant proteins is shown on FIG. 20 following SDS-PAGE separation and gel visualisation using silver staining and anti-His immonublot.
This scatter plot compares the abundance of more than 4500 peptide ions, of which approximately 45 correspond to SUMOylated tryptic peptides (blue circles). […]

The subject of test [2] is PML-nuclear bodies in HEK293 human cells. The experiment in a line: Immunofluorescence microscopy: co-localization of PML-Yellow Fluorescence Protein with His6-SUMO to nuclear bodies. The class given is cell-based. The following applies: HEK293, incubation with 1 μM As2O3. An excerpt: Immunofluorescence microscopy of HEK293 human cells showing co-localization of PML-Yellow Fluorescence Protein with His6 SUMO1 WT (top) and Q92R mutant (bottom) to nuclear bodies. […] DAPI staining (nucleus).
Immunofluorescence microscopy of HEK293 human cells showing co-localization of PML-Yellow Fluorescence Protein with His6-SUMO1 WT, His6-SUMO1 mutant, His6-SUMO2 WT, His6-SUMO2 mutant, His6-SUMO3 WT, and His6-SUMO3 mutant to nuclear bodies, DAPI staining (nucleus).
The functional activity of the wild type and SUMO mutants was also determined from immunofluorescence microscopy by monitoring the recruitment of the SUMOylated promyelocytic leukaemia (PML) substrate to nuclear bodies following treatment of HEK293 cells with As2O3 (FIG. 14). The visualization of all SUMO mutants using this immunofluorescence assay also confirmed the functional activity of all three SUMO isoforms (FIG. 15).

The next test deals with protein SUMOylation. The experiment in a line: NTA purification of His6-SUMO1 mutant proteins, silver-stained SDS-PAGE and immunoblot anti-His. The class given is cell-based, human. Particulars: cells stably expressing His6-SUMO1 mutant, stimulation with As2O3. As to the method: FIG. 20 illustrates gel electrophoresis separation of His6-SUMO1 mutant proteins following NTA purification. Silver-stained SDS-PAGE and immunoblot anti-His show an enrichment of His6-SUMO1 proteins as indicated from the trail of protein bands at the top of the gel.
as §1

A further test concerns HA-RanGAP. In words: In vivo SUMOylation assay with transfected HA-RanGAP, immunoblot anti-HA. The class given is cell-based, human. As to the method: FIG. 9 illustrates immunoblot of in vivo SUMOylation assay using transfected HA-RanGAP as protein substrate. Immunoblots are performed using an antibody that recognized the HA epitope. Immunoblots are presented for His6-SUMO1 (wild type, and mutant Q92R).
SUMO isoform mutants can also be co-transfected in mammalian cells with target protein substrates. For example, RanGAP1, a known SUMOylation target forms a tight complex in association with NUP358 and UBE2I/UBC9. The ubiquitin-conjugating enzyme E2 interacts with UBE2I favoring the conjugation of SUMO1 to RANGAP1, and subsequently stabilizes interactions of SUMOylated RANGAP1 with RANBP2/NUP358. The SUMO1/RANGAP1/UBC9/NUP358 complex associates with nuclear pore complexes (Joseph, J., Tan, S. H., Karpova, T. S., McNally, J. G., and Dasso, M. (2002). SUMO-1 targets RanGAP1 to kinetochores and mitotic spindles. The Journal of cell biology 156, 595-602; Swaminathan, S., Kiendl, F., Korner, R., Lupetti, R., Hengst, L., and Melchior, F. (2004). RanGAP1*SUMO1 is phosphorylated at the onset of mitosis and remains associated with RanBP2 upon NPC disassembly. The Journal of cell biology 164, 965-971). The SUMO isoform mutants are also functional and can be conjugated to RanGAP1 following transfection of these proteins in […] cells, as illustrated in FIG. 9. […]
Background: A western blot detects proteins with antibodies after separation by electrophoresis.

For “His6-SUMO2 Q88R: Substitution of Gln for Arg at position 88 in endogenous SUMO2 protein, N-terminal His6; SEQ ID NO: 8”, the “SUMOylated E2 band on stained gel” value in test [1] was “SUMOylated E2 is observed as the highest molecular weight band”. With `[AsH3]` [As2O3], on PML (HEK293, NTA-purified His-SUMO3 proteins, upon As2O3 treatment), the “abundance of PML peptides” value is on record as “significant increased in abundance”. In addition, at PML (HEK293 His-SUMO3 mutant, As2O3 treated vs not treated), the “increase in SUMOylation of K490 bearing PML peptide” value turned out to be 8 fold. Also, the “formation of PML-nuclear bodies” value in test [2] is given as “Increase formation of PML-nuclear bodies”. In addition, in the test on protein SUMOylation, the “protein SUMOylation (His6-SUMO1 protein bands)” value was “Enhanced protein SUMOylation”. In the case of “His6-SUMO1 Q92R: Substitution of Gln for Arg at position 92 in endogenous SUMO1 protein, N-terminal His6; SEQ ID NO: 4”, the “SUMOylated E2 band on stained gel” value in test [1] was “SUMOylated E2 is observed as the highest molecular weight band”. For the same molecule, the “SUMOylated HA-RanGAP band on immunoblot” value in the test on HA-RanGAP is “SUMOylated HA-RanGAP is observed as the highest molecular weight band”. Regarding “His6-SUMO1 E93R: recombinant His6-SUMO1 with mutation E93R”, the “SUMOylated E2 band on stained gel” value in test [1] is listed as “SUMOylated E2 is observed as the highest molecular weight band”. Same read-out and setting: for “His6-SUMO1 Q94R: recombinant His6-SUMO1 with mutation Q94R” the value was “SUMOylated E2 is observed as the highest molecular weight band”.

B1: His6-SUMO3 Q92R/Q93N: Gln to Arg at position 87 and Gln to Asn at position 88 in endogenous SUMO3, N-terminal His6; SEQ ID NO: 12 (protein, listed as Homo sapiens)
chain: MAHHHHHHGGSMSEEKPKEGVKTENDHINLKVAGQDGSVVQFKIKRHTPLSKLMKAYCERQGLSMRQIRFRFDGQPINETDTPAQLEMEDEDTIDVFRNQTGG
modifications: N-terminal His6
On to B1, for which the “SUMOylated E2 band on stained gel” value in test [1] is on record as “SUMOylated E2 is observed as the highest molecular weight band”.

The values above are taken from US9046527B2, “Mutated SUMO isoforms and uses thereof” (Université De Montréal, priority 2009, dated 2015).
